Test system: silver scurf (Helminthosporium solani)
Test: Silver scurf coverage on Roseval potatoes after three months storage
Format: in vivo
Conditions: three months storage at 8° C., thermal fogging
Procedure: Roseval potatoes were treated by thermal fogging with mint oil at 90 g/tonne, or with 67-72 g/tonne of L-carvone, then three times at 30 g/tonne, or 22.5-24 g/tonne of L-carvone, at 21-day intervals. They were then stored for three months at 8° C. The silver scurf coverage rates were measured on the batches treated with L-carvone and on the controls treated by thermal fogging with CIPC at 200 g/L at a dose of 60 ml/tonne for the first application then at 40 ml/tonne for the subsequent applications.

Row | SMILES | Coverage 5-75% (%) Class 4 | Coverage 6-25% (%) Class 2 | Coverage 26-50% (%) Class 3 | Coverage >75% (%) Class 5 | Coverage ≦5% (%) Class 1 | Silver scurf index (0-100) | Undamaged tubers (%) Class 0
1 | C=C(C)C1CC=C(C)C(=O)C1 [L-carvone, 2-methyl-5-(1-methylethenyl)-2-cyclohexen-1-one] | 0.0% | 0.0 b % | 0.0 b % | 0.0% | 28.5% | 0.8 b | 71.5 a %
2 | CC(C)OC(=O)Nc1cccc(Cl)c1 [Thermo reference] | 0.7% | 7.7 a % | 3.9 a % | 1.5% | 26.2% | 5.7 a | 60.2 b %

Source: US20110003694A1, “USE OF SOLUTIONS OF MINT OIL OR OF L-CARVONE FOR THE FUNGICIDAL AND/OR ANTI-GERMINATING TREATMENT OF BULBS AND/OR TUBERS” (Zone Artisanale La Crau Route Nationale 7, priority 2007, published 2011)
